Source: PubChem BioAssay AID1963448 (Molecular Pharmacology Branch, DTP, NCI, 2024)
pIC50: −log10 of the molar value. Where “and” joins values, the source holds several entries; their conditions need not be identical. Equal values may be shown once.

System: 616215-338-R-J1-PDC complex spheroid growth, % test/control
Assay: Anticancer human tumor 616215-338-R-J1-PDC patient-derived colon adenocarcinoma cell line growth inhibition [Asc]
Conditions: for viability, T/C: stronger effect = lower value
In short: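 Complex spheroids combining tumor cells with HUVEC endothelial cells and human MSCs, at 37 degrees C, 5% CO2; agents tested alone or combined, half-log dilutions from at or near clinical Cmax, or 10 microM if Cmax unknown.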

[1] = curve of first compound, second compound 0.00316 µM
[2] = curve of first compound, second compound 0.01 µM
[3] = curve of first compound, second compound 0.0316 µM
[4] = curve of first compound, second compound 0.1 µM
[5] = curve of first compound, second compound 0.316 µM
[6] = curve of first compound, second compound 1 µM
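Also: spheroids exposed to agents for seven days before readout.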
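For viability, T/C in this document: 100% = DMSO vehicle control viability.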

Question: Which results are given for `CCN1C(C(=O)NC23CCC(C(=O)O)(CC2)CC3)C(c2cccc(Cl)c2F)C2(C(=O)Nc3cc(Cl)ccc32)C12CCCCC2` (configuration not stated) + CNC(C)C(=O)NC1CN(S(=O)(=O)c2cccc(S(=O)(=O)N3CCC4CCC(C(=O)NC(c5ccccc5)c5ccccc5)N4C(=O)C(NC(=O)C(C)NC)C3)c2)CCC2CCC(C(=O)NC(c3ccccc3)c3ccccc3)N2C1=O?
Answer: pIC50 [1]: 7.06; pIC50 [2]: 7.06; pIC50 [3]: 6.76; pIC50 [4]: 7.03; pIC50 [5]: 7.09; pIC50 [6]: 7.05; viability, T/C (second compound 0.00316 µM, first compound 0.00949 µM): 109%; viability, T/C (second compound 0.00316 µM, first compound 0.03 µM): 108%; viability, T/C (second compound 0.00316 µM, first compound 0.0949 µM): 41.7%; viability, T/C (second compound 0.00316 µM, first compound 0.3 µM): 45.3%; viability, T/C (second compound 0.00316 µM, first compound 0.949 µM): 49.6%; viability, T/C (second compound 0.00316 µM, first compound 3 µM): 45.4%; viability, T/C (second compound 0.01 µM, first compound 0.00949 µM): 108%; viability, T/C (second compound 0.01 µM, first compound 0.03 µM): 104%; viability, T/C (second compound 0.01 µM, first compound 0.0949 µM): 41.6%; viability, T/C (second compound 0.01 µM, first compound 0.3 µM): 44%; viability, T/C (second compound 0.01 µM, first compound 0.949 µM): 54.3%; viability, T/C (second compound 0.01 µM, first compound 3 µM): 41.1%; viability, T/C (second compound 0.0316 µM, first compound 0.00949 µM): 99.2%; viability, T/C (second compound 0.0316 µM, first compound 0.03 µM): 101%; viability, T/C (second compound 0.0316 µM, first compound 0.0949 µM): 53.5%; viability, T/C (second compound 0.0316 µM, first compound 0.3 µM): 50%; viability, T/C (second compound 0.0316 µM, first compound 0.949 µM): 48.7%; viability, T/C (second compound 0.0316 µM, first compound 3 µM): 42%; viability, T/C (second compound 0.1 µM, first compound 0.00949 µM): 111%; viability, T/C (second compound 0.1 µM, first compound 0.03 µM): 78.2%; viability, T/C (second compound 0.1 µM, first compound 0.0949 µM): 51.1%; viability, T/C (second compound 0.1 µM, first compound 0.3 µM): 36.3%; viability, T/C (second compound 0.1 µM, first compound 0.949 µM): 52.8%; viability, T/C (second compound 0.1 µM, first compound 3 µM): 41.1%; viability, T/C (second compound 0.316 µM, first compound 0.00949 µM): 97.5%; viability, T/C (second compound 0.316 µM, first compound 0.03 µM): 89.5%; viability, T/C (second compound 0.316 µM, first compound 0.0949 µM): 43.4%; viability, T/C (second compound 0.316 µM, first compound 0.3 µM): 41.2%; viability, T/C (second compound 0.316 µM, first compound 0.949 µM): 44.9%; viability, T/C (second compound 0.316 µM, first compound 3 µM): 44.1%; viability, T/C (second compound 1 µM, first compound 0.00949 µM): 89.8%; viability, T/C (second compound 1 µM, first compound 0.03 µM): 83.4%; viability, T/C (second compound 1 µM, first compound 0.0949 µM): 47.5%; viability, T/C (second compound 1 µM, first compound 0.3 µM): 43.5%; viability, T/C (second compound 1 µM, first compound 0.949 µM): 60.1%; viability, T/C (second compound 1 µM, first compound 3 µM): 39.5%

Question: How did the pIC50 [1] turn out when `O=C(c1ccc(F)c(F)c1Nc1ccc(I)cc1F)N1CC(O)([C@@H]2CCCCN2)C1` + CNC(C)C(=O)NC1CN(S(=O)(=O)c2cccc(S(=O)(=O)N3CCC4CCC(C(=O)NC(c5ccccc5)c5ccccc5)N4C(=O)C(NC(=O)C(C)NC)C3)c2)CCC2CCC(C(=O)NC(c3ccccc3)c3ccccc3)N2C1=O was run?
Answer: 7.39

Question: And the pIC50 [2]?
Answer: 7.72

Question: What about the pIC50 [3] of the same compound?
Answer: 7.33

Question: What about the pIC50 [4] of the same compound?
Answer: 7.35

Question: What about the pIC50 [5] of the same compound?
Answer: 7.41

Question: And the pIC50 [6]?
Answer: 7.62

Question: And the viability, T/C (second compound 0.00316 µM, first compound 0.00316 µM)?
Answer: 113%

Question: What about the viability, T/C (second compound 0.00316 µM, first compound 0.01 µM) of the same compound?
Answer: 94.8%

Question: What about the viability, T/C (second compound 0.00316 µM, first compound 0.0316 µM) of the same compound?
Answer: 64.3%

Question: What about the viability, T/C (second compound 0.00316 µM, first compound 0.1 µM) of the same compound?
Answer: 3.19%

Question: And the viability, T/C (second compound 0.00316 µM, first compound 0.316 µM)?
Answer: 0.64%

Question: What about the viability, T/C (second compound 0.00316 µM, first compound 1 µM) of the same compound?
Answer: 0.34%

Question: What about the viability, T/C (second compound 0.01 µM, first compound 0.00316 µM) of the same compound?
Answer: 98.9%

Question: What about the viability, T/C (second compound 0.01 µM, first compound 0.01 µM) of the same compound?
Answer: 109%

Question: And the viability, T/C (second compound 0.01 µM, first compound 0.0316 µM)?
Answer: 8.64%

Question: What about the viability, T/C (second compound 0.01 µM, first compound 0.1 µM) of the same compound?
Answer: 18.4%

Question: What about the viability, T/C (second compound 0.01 µM, first compound 0.316 µM) of the same compound?
Answer: 2.31%

Question: And the viability, T/C (second compound 0.01 µM, first compound 1 µM)?
Answer: 2.27%

Question: And the viability, T/C (second compound 0.0316 µM, first compound 0.00316 µM)?
Answer: 103%

Question: And the viability, T/C (second compound 0.0316 µM, first compound 0.01 µM)?
Answer: 87.8%

Question: What about the viability, T/C (second compound 0.0316 µM, first compound 0.0316 µM) of the same compound?
Answer: 71.4%

Question: What about the viability, T/C (second compound 0.0316 µM, first compound 0.1 µM) of the same compound?
Answer: 8.55%

Question: What about the viability, T/C (second compound 0.0316 µM, first compound 0.316 µM) of the same compound?
Answer: 1.84%

Question: What about the viability, T/C (second compound 0.0316 µM, first compound 1 µM) of the same compound?
Answer: 1.89%

Question: And the viability, T/C (second compound 0.1 µM, first compound 0.00316 µM)?
Answer: 99.6%

Question: And the viability, T/C (second compound 0.1 µM, first compound 0.01 µM)?
Answer: 99.8%

Question: And the viability, T/C (second compound 0.1 µM, first compound 0.0316 µM)?
Answer: 70.7%

Question: What about the viability, T/C (second compound 0.1 µM, first compound 0.1 µM) of the same compound?
Answer: 1.22%

Question: What about the viability, T/C (second compound 0.1 µM, first compound 0.316 µM) of the same compound?
Answer: 0.55%

Question: What about the viability, T/C (second compound 0.1 µM, first compound 1 µM) of the same compound?
Answer: 1.32%

Question: What about the viability, T/C (second compound 0.316 µM, first compound 0.00316 µM) of the same compound?
Answer: 109%

Question: And the viability, T/C (second compound 0.316 µM, first compound 0.01 µM)?
Answer: 107%

Question: What about the viability, T/C (second compound 0.316 µM, first compound 0.0316 µM) of the same compound?
Answer: 56%

Question: And the viability, T/C (second compound 0.316 µM, first compound 0.1 µM)?
Answer: 14.7%

Question: And the viability, T/C (second compound 0.316 µM, first compound 0.316 µM)?
Answer: 2.54%

Question: And the viability, T/C (second compound 0.316 µM, first compound 1 µM)?
Answer: 1.35%

Question: And the viability, T/C (second compound 1 µM, first compound 0.00316 µM)?
Answer: 102%

Question: What about the viability, T/C (second compound 1 µM, first compound 0.01 µM) of the same compound?
Answer: 106%

Question: What about the viability, T/C (second compound 1 µM, first compound 0.0316 µM) of the same compound?
Answer: 32.9%

Question: And the viability, T/C (second compound 1 µM, first compound 0.1 µM)?
Answer: 1.86%

Question: What about the viability, T/C (second compound 1 µM, first compound 0.316 µM) of the same compound?
Answer: 0.87%

Question: What about the viability, T/C (second compound 1 µM, first compound 1 µM) of the same compound?
Answer: 1.24%

Question: What does the source list for `O=C(c1cc(Cc2n[nH]c(=O)c3ccccc23)ccc1F)N1CCN(C(=O)C2CC2)CC1`?
Answer: viability, T/C (compound 0.0316 µM): 97.1% and 97.4% and 112%; viability, T/C (compound 0.1 µM): 99.8% and 94.7% and 98.3%; viability, T/C (compound 0.316 µM): 97.7% and 99.4% and 100%; viability, T/C (compound 1 µM): 96.5% and 94.7% and 99.3%; viability, T/C (compound 3.16 µM): 96.8% and 106% and 90.6%; viability, T/C (compound 10 µM): 91.1% and 90.2% and 89.1%; pIC50 (curve of compound): < 5.00

Question: Which viability, T/C (compound 0.1 µM) does the source give for `Cc1c(S(C)(=O)=O)c(-c2cc(F)cc(N3CCN(c4ccc(NS(=O)(=O)c5ccc(NC(CCN6CCC(C(=O)OCCCP(=O)(O)O)CC6)CSc6ccccc6)c(S(=O)(=O)C(F)(F)F)c5)cc4)CC3)c2)c(-c2ccc(Cl)cc2)n1C(C)C` (configuration not stated) here?
Answer: 89.8% [middle of 14 runs]

Question: What about the viability, T/C (compound 0.316 µM) of the same compound?
Answer: 88.1% [middle of 14 runs]

Question: What about the viability, T/C (compound 1 µM) of the same compound?
Answer: 69.6% [middle of 14 runs]

Question: What about the viability, T/C (compound 3.16 µM) of the same compound?
Answer: 38% [middle of 13 runs]

Question: And the viability, T/C (compound 10 µM)?
Answer: 27.6% [middle of 14 runs]

Question: What about the IC50 (compound alone, run of 10/11/2022) of the same compound?
Answer: 1.96 µM [middle of 13 runs]
